Source: the OPERA property sets (Mansouri et al. 2018)

| SMILES | log10 Henry constant (atm·m³/mol) | melting point [°C] | boiling point [°C] | ready biodegradability | log10 vapour pressure (mmHg) | log10 Koc (L/kg) | log10 Koa | log10 biodegradation half-life (days) |
| --- | --- | --- | --- | --- | --- | --- | --- | --- |
| Clc1ccc(-c2ccc(Cl)c(Cl)c2)cc1 | -4 | – | – | – | – | – | – | – |
| Nc1ccccc1I | – | 56.5 | – | – | – | – | – | – |
| O=C(Cn1ccnc1[N+](=O)[O-])NCc1ccccc1 | – | 189 | – | – | – | – | – | – |
| CCOC(OCC)C(Cl)(Cl)Cl | – | – | 197 | – | – | – | – | – |
| CCCCCCCCc1ccc(N)cc1 | – | 20 | 310 | readily biodegradable | – | – | – | – |
| CCCCCCCCCCCCCCCCOP(=O)(O)OCCCCCCCCCCCCCCCC | – | 74.5 | – | – | – | – | – | – |
| CCCCc1cccc2ccccc12 | – | -19.8 | 289 | – | – | – | – | – |
| COS(=O)(=O)OC | – | -27 | – | – | -0.169 | – | – | – |
| Cc1cccc(C)n1 | -4.98 | -6.1 | 144 | – | 0.752 | – | – | – |
| OCc1ccccc1Cl | – | 73 | 230 | – | – | – | – | – |
| COS(C)(=O)=O | – | 20 | 203 | – | – | – | – | – |
| O=S(=O)(O)c1ccccc1 | – | 65 | – | readily biodegradable | – | – | – | – |
| O=S=Nc1ccccc1 | – | – | 200 | – | – | – | – | – |
| Clc1nc(Cl)c(Cl)c(Cl)n1 | – | 69 | – | – | – | – | – | – |
| CCCCCCCCCCCc1ccccc1 | – | -5 | 316 | – | -3.62 | – | – | – |
| CCCC(=O)O | -6.27 | -5.7 | – | readily biodegradable | 0.217 | – | – | – |
| Nc1ccc(/N=N/c2ccccc2)cc1 | – | 127 | 366 | not readily biodegradable | -5.85 | 2.79 | – | – |
| CCCCCCCCCCCCCCCCCC(=O)OCCC(C)C | – | 25.5 | – | – | – | – | – | – |
| C[C@H](CCC(=O)O)[C@H]1CC[C@H]2[C@@H]3CCC4CCCC[C@]4(C)[C@H]3CC[C@]12C (stereo partly drawn) | – | 164 | – | – | – | – | – | – |
| CCCCC(C)(CC)CC | – | – | 164 | – | – | – | – | – |

| SMILES | log10 Henry constant (atm·m³/mol) | melting point [°C] | boiling point [°C] | ready biodegradability | log10 vapour pressure (mmHg) | log10 Koc (L/kg) | log10 Koa | log10 biodegradation half-life (days) |
| --- | --- | --- | --- | --- | --- | --- | --- | --- |
| C=CCOC(=O)CC(C)=O | – | -85 | 196 | – | – | – | – | – |
| CC(C)Sc1ccccc1 | – | – | 208 | – | – | – | – | – |
| Cc1nc(C)c(Cl)c(O)c1Cl | – | 320 | – | – | – | – | – | – |
| Clc1cc2cccc(Cl)c2cc1Cl | – | – | – | – | – | – | 7.5 | – |
| COc1ccccc1Oc1ccccc1OC | – | 79.5 | 330 | – | – | – | – | – |
| CCNNCC | – | – | 85.5 | – | – | 1.18 | – | – |
| Nc1ccc2ncsc2c1 | – | 87 | – | – | – | – | – | – |
| CN(C)c1ccccc1Cl | – | – | 205 | – | – | – | – | – |
| CCCOC(=O)c1ccccc1O | – | 97 | 239 | – | – | – | – | – |
| CCC(CC)C(C)C(C)C (stereo not drawn) | – | – | 162 | – | – | – | – | – |
| Nc1ccc2c3c(cccc13)-c1ccccc1-2 | – | 116 | – | – | – | – | – | – |
| CC(C)CCC(O)C(C)C (stereo not drawn) | – | – | 175 | – | – | – | – | – |
| NCCC(=O)O | – | – | – | readily biodegradable | – | – | – | – |
| CCCC=C(C)C | – | -130 | 95.4 | – | 1.73 | – | – | – |
| CCC(C)(Br)CC | – | – | 130 | – | – | – | – | – |
| Nc1ccc(Cl)c([N+](=O)[O-])c1 | – | 103 | – | – | – | – | – | – |
| CO[Si](CCCN=C(N(C)C)N(C)C)(OC)OC | – | – | – | not readily biodegradable | – | – | – | – |
| CCCCCCCCCOC(C)=O | – | -26 | 210 | – | – | – | – | – |
| Cc1cc(NC(N)=O)ccc1F | – | – | – | – | – | 1.75 | – | – |
| BrC1Cc2ccccc2C1Br (stereo not drawn) | – | 32 | – | – | – | – | – | – |

| SMILES | log10 Henry constant (atm·m³/mol) | melting point [°C] | boiling point [°C] | ready biodegradability | log10 vapour pressure (mmHg) | log10 Koc (L/kg) | log10 Koa | log10 biodegradation half-life (days) |
| --- | --- | --- | --- | --- | --- | --- | --- | --- |
| CCOCCOC(C)=O | -5.49 | -61.7 | 156 | readily biodegradable | 0.369 | – | – | – |
| c1ccc2c(c1)OCO2 | – | – | 172 | – | – | – | – | – |
| C=CCc1cc2c(c(OC)c1OC)OCO2 | – | 29.5 | 285 | – | – | – | – | – |
| CC1=CCCCC1 | – | – | 106 | – | 1.49 | – | – | – |
| CC(C)CC(C)Cl (stereo not drawn) | – | – | 113 | – | – | – | – | – |
| CC(O)C#N (stereo not drawn) | – | -40 | 183 | – | -0.925 | – | – | – |
| FC(OC(F)(F)C(F)(F)C(F)(F)F)C(F)(F)F (stereo not drawn) | – | – | 41 | – | – | – | – | – |
| CC1(C)CC=CC1 | – | – | 88 | – | – | – | – | – |
| CCCCNC(=S)NCCCC | – | 64 | – | – | – | – | – | – |
| CCNc1nc(Cl)nc(NCC)n1 | – | 226 | – | not readily biodegradable | -7.66 | 2.1 | – | – |
| CC(=O)CC(c1ccc([N+](=O)[O-])cc1)c1c(O)c2ccccc2oc1=O (stereo not drawn) | – | 197 | – | – | – | – | – | – |
| NCCNCc1ccccc1 | – | – | – | not readily biodegradable | – | – | – | – |
| CC(C)CCC(C)(C)C | – | -106 | 124 | – | 1.22 | – | – | 1.26 |
| CNc1ccc(NC)c2c1C(=O)c1ccccc1C2=O | – | 220 | – | – | -10.7 | – | – | – |
| CCC1(C)CC(=O)NC(=O)C1 | – | 126 | – | – | – | – | – | – |
| CCCCCCCCCCCC(=O)[O][Na] | – | – | – | readily biodegradable | – | – | – | – |
| Nc1ccc2c(c1)C(=O)c1ccccc1C2=O | – | 304 | – | not readily biodegradable | -10.3 | – | – | – |
| FC(F)OC(F)C(F)(F)F (stereo not drawn) | – | – | 23.5 | – | 2.82 | – | – | – |
| O=C(O)C1=CC(=C(c2ccc(O)c(C(=O)O)c2)c2ccc(O)c(C(=O)O)c2)C=CC1=O | – | 300 | – | – | – | – | – | – |
| ClCC(Br)CBr (stereo not drawn) | – | 6 | 196 | not readily biodegradable | -0.237 | 1.85 | – | – |
